The results in this text go back to PubChem BioAssay (NCI).

Experiment in all cases: inhibition of tumour cell growth, NCI panel, 48 h
For assay [1], the system named is ACHN renal.
Assay [2] concerns CAKI-1 renal.
The subject of assay [3] is EKVX NSCLC.
Assay [4] concerns HCT-15 colon.
Assay [5] has as its system HS 578T breast.
The test system of assay [6] is MOLT-4 leukemia.
Assay [7] relates to NCI-H460 lung.
Assay [8] deals with OVCAR-3 ovarian.
The test system of assay [9] is SK-MEL-5 melanoma.
The test system of assay [10] is SK-MEL-2 melanoma.

“And” between values parts separate entries of the source, which are not always exact repeats. Equal entries are not always repeated.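 Step 1: Grow cells in 96-well plates. Step 2: Expose to compound for 48 hours at 5 concentrations. Step 3: Interpolate endpoints linearly; if unreached, use highest concentration. GI50 = concentration required for 50% inhibition of growth. TGI denotes the concentration required for complete inhibition of growth.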

`CCCN(CCC)c1ccc(C=O)c(OC)c1`: the GI50 was 21.4 µM in assay [1]; 22.7 µM in [2]; 16.1 µM in assay [3]; 24.1 µM in [4]; 15.5 µM in assay [5]; 11.9 µM in [6]. Further, the GI50 in assay [7] is 24 µM; in assay [8], 15.1 µM; in assay [9], 14.5 µM. Moreover, the TGI was over 100 µM in [1]; 80.4 µM in assay [2]; 76.1 µM in [3]; over 100 µM in assay [4]; 94.4 µM in [5]; 40.4 µM in [6]. In addition, the TGI was over 100 µM in assay [7], 33.9 µM in assay [8] and 29.3 µM in [9].
With `O=C1c2ccccc2C(=O)c2c1c(NCCNCCO)c1cc[nH]c1c2NCCNCCO`, the GI50 in assay [1] was 9.96 µM; in [2], over 47.1 µM; in assay [3], 4.65 µM; in assay [4], over 70.9 µM; in assay [5], 1.93 µM; in assay [6], 1.28 µM. In addition, the GI50 in [7] is 7.78 µM; in assay [8], 3.57 µM; in assay [9], 3.17 µM. The TGI was over 100 µM in [1]; over 100 µM in assay [2]; 25.5 µM in assay [3]; over 100 µM in [4]; 11.1 µM in assay [5]; over 60.1 µM in assay [7]. In addition, the figures for the TGI in [8] and in assay [9] were over 26.1 µM and 16.4 µM, respectively.
On to `Cn1c(-c2c(N)n(Cc3ccc(Cl)cc3)c3nc(C#N)c(C#N)nc23)nc2ccccc21`, for which the GI50 was 1.5 µM in assay [1]; 7.15 µM in assay [2]; 7.04 µM in assay [3]; 4.55 µM in assay [4]; 4 µM in assay [5]; 2.7 µM in assay [7]. Also, the GI50 in assay [8] was 1.37 µM; in [10] it was over 50 µM; in assay [9], 5.24 µM. The TGI is 6.38 µM in [1]; 18.7 µM in assay [2]; 46.1 µM in [3]; over 50 µM in assay [4]; 24.5 µM in [5]; 25.7 µM in assay [7]. In addition, the TGI in [8] is 6.2 µM; in assay [10], over 50 µM; in [9], 16.5 µM.
Consider `Cc1cc(Cl)ccc1OCC(=O)Oc1c(Cl)c(Cl)c(Cl)c(Cl)c1Cl`, for which the TGI in assay [1] is over 100 µM; in assay [2] it was over 100 µM; in [3], 56.4 µM; in [4], 71.7 µM; in assay [5], 66.3 µM; in assay [7] it was 51.9 µM. Further, the TGI in assay [8] worked out at 39 µM; in [10] it was 67.7 µM; in [9], 61.9 µM.
`CC(=O)OC1CC(C)c2c1ncnc2N1CCN(C(=O)OC(C)(C)C)CC1` (configuration not stated): the GI50 in assay [1] is 80.7 µM; in [2], 63.8 µM; in assay [4], 55.3 µM; in assay [5], 83.5 µM; in assay [6], 37.2 µM; in assay [7], 34.7 µM. Also, the GI50 in [8] is 32.3 µM; in assay [10], 35.5 µM; in assay [9], 37.8 µM. The TGI in [1], in assay [2], in assay [4], in assay [5], in assay [6] and in assay [7] was over 100 µM each time. Moreover, the TGI was 82.7 µM in assay [8], 93.1 µM in assay [10] and over 100 µM in assay [9].
Consider `CO/N=C(\COc1ccc2c(=O)cc(-c3ccccc3)oc2c1)c1ccc(OC)cc1`, for which the GI50 in [1] was over 100 µM; in assay [2] it was 24.9 µM; in [3], over 100 µM; in assay [4] it was over 100 µM; in assay [5] it was over 100 µM; in assay [8], 23.2 µM. Also, the GI50 in [10] and in assay [9] was over 100 µM each time. For the same molecule, the TGI in assay [1] is over 100 µM; in [2], 70.3 µM; in [3], over 100 µM; in assay [4] it was over 100 µM; in assay [5], over 100 µM; in assay [8] it was 44.8 µM. For the same molecule, the TGI in [10] and in assay [9] was over 100 µM in each case.
Take `CCN(CCc1ccc(F)cc1)c1ccc(CO)c(Cl)c1`: the GI50 in assay [1] was 9.59 µM; in assay [2], 4.23 µM; in assay [4] it was 9.84 µM; in assay [5], 11.5 µM; in assay [6], 14.3 µM; in [7], 6.3 µM. In addition, the results for the GI50 in assay [8], in [10] and in assay [9] were 4.27 µM, 7.29 µM and 13 µM, respectively. Also, the TGI in [1] was 22.5 µM; in assay [2], 17.2 µM; in assay [4], 24.6 µM; in assay [5] it was 32.4 µM; in [6] it was 50.1 µM; in [7] it was 21.6 µM. The TGI in assay [8] was found to be 15.4 µM; in [10] it was 21.1 µM; in [9], 25.9 µM.
As to `Cc1ccc(S(=O)(=O)NC(C)C(=O)O)cc1` (configuration not stated), the TGI in assay [1], in [2], in assay [3], in [4], in assay [6] and in assay [7] was over 100 µM in each case. Further, the TGI in [8], in [10] and in assay [9] was over 100 µM each time.
`NCC(=O)OCN1C(=O)C2C3C=CC(C2C1=O)C1C2C(=O)N(COC(=O)CN)C(=O)C2C31` (configuration not stated): the TGI in assay [1] was 67.6 µM and 62.1 µM; in assay [2] it was over 100 µM; in [3], over 100 µM; in assay [4], 36.9 µM and 34.8 µM; in assay [6], 69.8 µM and 42.2 µM; in assay [7] it was 35.8 µM and 34.3 µM. The TGI is 82.1 µM and 93.4 µM in [8]; 38.6 µM and 41.2 µM in [10]; 51.7 µM and 34 µM in [9].
